Laboratory results published in paper PMC3551932, “STK295900, a Dual Inhibitor of Topoisomerase 1 and 2, Induces G2 Arrest in the Absence of DNA Damage” (PLoS ONE, 2013).

What was measured:
MDA-MB-231 cells = assay: Cell growth inhibition assay, MDA-MB-231; assay type: cell-based; conditions: Homo sapiens, 96 h; Table 1; MDA-MB-231, breast adenocarcinoma; growth up to 4 days
From the text: (§1) Human epitheloid cervical carcinoma HeLa cells, human breast adenocarcinoma MCF7 and MDA-MB-231cells, human hepatocellular carcinoma HepG2 cells, human colon adenocarcinoma HT-29 cells, and human colorectal carcinoma HCT-116 cells were purchased from ATCC® and maintained in DMEM medium. Human prostate carcinoma PC-3 cells (purchased from ATCC®), human gastric carcinoma SNU-484 and SNU-601(obtained from Korean Cell Line Bank (KCLB)), human leukemia K-562 and HL-60 cells (purchased from ATCC®), immortalized human prostate epithelial 267B1cells, and immortalized human embryonic lung fibroblast MRC5CV1 cells were maintained in RPMI 1640 medium whereas immortalized retinal pigment epithelial hTERT RPE-1 cells (purchased from ATCC®) were maintained in DMEM/F12 medium. All cell lines were cultured in media supplemented with 10% fetal bovine serum, 100 U/ml penicillin, and […] streptomycin at 37°C in a 5% CO2 incubator.
(§2) Cells were seeded at the appropriate amount (1–2×10^3 cells) in triplicate in 96-well plates for 24 h and then treated with various concentrations of STK295900. Cell growth was determined by using EZ-CyTox cell viability assay kit (Daeil Lab. Service, Seoul, Korea). Ten microliters of WST solution were added to the treated cells at 24, 48, 72, and 96 h. Cells were further incubated at 37°C for 2 h and the absorbance was measured at 450 nm.

HCT-116 cells = assay: Cell growth inhibition assay, HCT-116; assay type: cell-based; conditions: Homo sapiens, 96 h, Table 1, growth up to 4 days
From the text: as §1, §2

SNU-601 cells = assay: Cell growth inhibition assay, SNU-601; assay type: cell-based; conditions: Homo sapiens, 96 h; Table 1; SNU-601, gastric carcinoma; growth up to 4 days
From the text: as §1, §2

[1] = tested on: cancer (HeLa, MCF7, HepG2, and HT-29) and non-cancerous cell lines (hTERT RPE-1, 267B1, and MRC5CV1); assay: Cell growth inhibition assay, cancer and non-cancerous cell lines compared; assay type: cell-based, human; conditions: cancer (HeLa, MCF7, HepG2, HT-29) vs non-cancer (hTERT RPE-1, 267B1, MRC5CV1)
From the text: as §1, §2

HeLa cells [2] = assay: Mitotic index (Hoechst 33342 staining, mitotic cells counted); assay type: cell-based, human; conditions: various concentrations, 24 h
From the text: Given its strong growth inhibitory effect on various cancer cell types, STK295900 was examined to determine its effect on cell cycle distribution using flow cytometry analysis. […] We then analyzed whether the increasing G2/M population in Fig. 2A is indeed G2 or M phase by determining the mitotic index and investigating the cell cycle regulatory proteins. To determine mitotic index, the treated cells were stained with Hoechst 33342 and then mitotic cells were counted. […] (A) Flow cytometric analysis for cell cycle distribution. HeLa cells were treated with the indicated concentrations of STK295900 for 24 h. Treated cells were then stained with propidium iodide (PI) and processed for cell cycle analysis. The bar graph represents the mean percentage of each cell cycle phase ± SD from three independent experiments. * = p<0.05 versus the respective G1, S, or G2/M phase of DMSO-treated cells. […] HeLa cells were treated with the indicated concentrations of STK295900 for 24 h. Cells were then stained with Hoechst 33342 and mitotic cells were counted. […] (C) Cell cycle related proteins expression.

HeLa cells [3] = assay: Immunoblot of cell cycle and DNA damage checkpoint proteins; assay type: cell-based, human; conditions: 24 h, STK295900 1 or 5 µM, camptothecin 10 µM, etoposide 10 µM
Description: Cells were lysed with cold RIPA buffer (50 mM Tris-HCl pH 8.0, 150 mM NaCl, 1% NP-40, 0.5% sodium deoxycholate, 0.1% SDS) containing freshly added protease inhibitor, phosphatase inhibitor (SIGMA), 1 mM DTT, and 1 mM Na3VO4 on ice for 1 h. Whole cell lysates were centrifuged at 15,000 rpm for 20 min and then the supernatant was transferred into a new tube. An appropriate amount of cell lysate was subjected to SDS-PAGE. Then the resolved proteins were transferred onto a PVDF membrane (Bio-Rad) for immunoblot analyses with specific antibodies. The proteins were detected using chemiluminescence solution (Thermo Scientific, Rockford, IL).
(A) Flow cytometric analysis for cell cycle distribution. HeLa cells were treated with the indicated concentrations of STK295900 for 24 h. Treated cells were then stained with propidium iodide (PI) and processed for cell cycle analysis. The bar graph represents the mean percentage of each cell cycle phase ± SD from three independent experiments. * = p<0.05 versus the respective G1, S, or G2/M phase of DMSO-treated cells. (B) Mitotic index of STK295900. HeLa cells were treated with the indicated concentrations of STK295900 for 24 h. Cells were then stained with Hoechst 33342 and mitotic cells were counted. […] (C) Cell cycle related proteins expression. […] Treated cells were lysed and subjected to immunoblot analyses with antibodies against cyclin A, cyclin B1, phospho-Histone H3 (S10), and Histone H3. β-actin was used as a loading control.
(A) G2/M transition regulated proteins expression. […] GAPDH was used as a loading control. (B) DNA damage-checkpoint related proteins. […] Images were analyzed on a fluorescence microscope.

human topoisomerase 2α = human topoisomerase 2α (Homo sapiens, UniProt P11388); assay: Supercoiled DNA relaxation assay for topoisomerase 2α; assay type: biochemical; conditions: pBR322, 37°C, 30 min
Description: After incubation, the reaction was terminated by addition of 2 µl of 10% SDS. The reaction mixtures were treated with 50 µg/ml proteinase K for 30 min at 37°C and then DNA was extracted with CIA (chloroform:isoamyl alcohol, 24∶1). Samples were resolved by electrophoresis on a 1% agarose gel. After staining the electrophoresed gel with ethidium bromide, DNA bands were visualized by UV light and photographed on Gel Doc XR.
Supercoiled DNA relaxation assay for (A) topoisomerase 1 (Top 1) and (B) topoisomerase 2 (Top 2). Supercoiled pBR322 plasmid DNA was incubated at 37°C for 30 min with Top 1 enzyme (A) or Top 2α (B) in the presence of various concentrations of indicated compounds. DNA samples were separated by electrophoresis on a 1% agarose gel, stained with ethidium bromide, and visualized by UV light. (−), supercoiled DNA alone; oc, open circular; sc, supercoiled. […] HeLa cells were pretreated with 10 µM of STK295900 for 30 min and then incubated with the indicated concentrations of camptothecin for 1 h. Treated cells were lysed and subjected to immunoblot analyses with antibody against γ-H2A.X. β-actin was used as a loading control. […] HeLa cells were pretreated with STK295900 at 10, 20, 30, or 50 µM or ICRF-193 at 10 µM for 30 min. […] Treated cells were then lysed and subjected to immunoblot analyses with antibody against γ-H2A.X. β-actin was used as a loading control.

Sequence of human topoisomerase 2α (P11388 whole entry): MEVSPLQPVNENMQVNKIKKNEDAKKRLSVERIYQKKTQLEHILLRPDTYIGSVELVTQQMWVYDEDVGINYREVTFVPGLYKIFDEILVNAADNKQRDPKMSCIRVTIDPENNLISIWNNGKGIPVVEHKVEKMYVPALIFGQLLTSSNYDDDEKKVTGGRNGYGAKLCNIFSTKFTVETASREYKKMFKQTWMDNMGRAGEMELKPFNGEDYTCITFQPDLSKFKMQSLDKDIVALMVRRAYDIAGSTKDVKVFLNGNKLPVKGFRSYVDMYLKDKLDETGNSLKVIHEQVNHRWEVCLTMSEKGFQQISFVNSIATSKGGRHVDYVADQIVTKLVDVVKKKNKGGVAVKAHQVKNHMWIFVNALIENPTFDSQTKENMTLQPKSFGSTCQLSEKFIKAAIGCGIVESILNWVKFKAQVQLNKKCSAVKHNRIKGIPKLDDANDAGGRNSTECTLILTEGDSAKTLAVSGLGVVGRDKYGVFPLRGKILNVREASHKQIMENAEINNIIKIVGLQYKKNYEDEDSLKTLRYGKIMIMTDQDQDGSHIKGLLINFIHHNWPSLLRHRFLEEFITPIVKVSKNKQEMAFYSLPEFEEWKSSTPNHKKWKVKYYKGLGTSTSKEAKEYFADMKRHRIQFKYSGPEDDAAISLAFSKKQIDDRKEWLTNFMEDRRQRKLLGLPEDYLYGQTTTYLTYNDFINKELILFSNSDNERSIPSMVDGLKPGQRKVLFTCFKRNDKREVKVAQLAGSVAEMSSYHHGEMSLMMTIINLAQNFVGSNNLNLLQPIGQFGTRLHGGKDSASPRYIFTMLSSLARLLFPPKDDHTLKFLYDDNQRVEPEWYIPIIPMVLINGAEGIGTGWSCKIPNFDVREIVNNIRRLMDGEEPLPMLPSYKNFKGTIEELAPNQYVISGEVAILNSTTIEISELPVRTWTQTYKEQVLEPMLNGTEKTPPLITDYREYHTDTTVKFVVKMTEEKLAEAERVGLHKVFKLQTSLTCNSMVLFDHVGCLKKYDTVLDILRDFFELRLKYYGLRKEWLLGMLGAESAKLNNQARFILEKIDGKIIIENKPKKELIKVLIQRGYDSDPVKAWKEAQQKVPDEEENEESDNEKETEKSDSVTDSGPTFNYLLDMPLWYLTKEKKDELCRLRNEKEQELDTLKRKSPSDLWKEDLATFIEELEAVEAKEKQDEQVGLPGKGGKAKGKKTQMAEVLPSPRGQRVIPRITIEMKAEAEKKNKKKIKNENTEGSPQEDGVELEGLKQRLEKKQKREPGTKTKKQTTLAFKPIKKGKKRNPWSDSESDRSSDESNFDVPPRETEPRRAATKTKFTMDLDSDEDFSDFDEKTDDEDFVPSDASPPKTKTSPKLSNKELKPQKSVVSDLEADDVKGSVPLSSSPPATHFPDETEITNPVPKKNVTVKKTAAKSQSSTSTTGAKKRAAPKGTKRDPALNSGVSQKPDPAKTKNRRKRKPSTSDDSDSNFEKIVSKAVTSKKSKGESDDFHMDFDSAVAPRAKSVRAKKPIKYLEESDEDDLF

Question: For `Nc1ccc(-c2nc3ccc(-c4ccc5nc(-c6ccc(N)cc6)[nH]c5c4)cc3[nH]2)cc1` [STK295900, 4,4′-(3H,3′H-5,5′-bibenzimidazole-2,2′-diyl)dianiline], which IC50 (MDA-MB-231 cells) is on record?
Answer: 510 nM

Question: What about the IC50 (HCT-116 cells) of the same compound?
Answer: 2830 nM

Question: What about the IC50 (SNU-601 cells) of the same compound?
Answer: 2210 nM

Question: And the “selectivity of toxicity, cancer versus non-cancer cells” value [1]?
Answer: selective toxicity against cancer cells

Question: And the mitotic index (HeLa cells [2])?
Answer: no significant change in mitotic index

Question: What about the “p53 and p21 levels” value (HeLa cells [3]) of the same compound?
Answer: did not induce upregulation of p53 but marginally affected p21 level

Question: And the “phosphorylation-dependent activation of ATM (S1981), ATR (S428), Chk1 (S345), and Chk2 (T68)” value (HeLa cells [3])?
Answer: no increase in phosphorylations of ATM, ATR, Chk1, and Chk1

Question: And the “Phosphorylation of Cdk1 at T161” value (HeLa cells [3]; nocodazole 200 ng/ml)?
Answer: dose-dependent increase

Question: What about the “Wee1 and Cdc25C levels” value (HeLa cells [3]; nocodazole 200 ng/ml) of the same compound?
Answer: no change in Wee1 and Cdc25C levels

Question: And the “cyclin A and cyclin B1 levels” value (HeLa cells [3]; nocodazole 200 ng/ml)?
Answer: accumulations of cyclin A and cyclin B1

Question: What about the “inhibitory phosphorylation of Cdk1 (T14 and Y15)” value (HeLa cells [3]; nocodazole 200 ng/ml) of the same compound?
Answer: dose-dependent increase

Question: And the “Top 2α-mediated DNA relaxation” value (human topoisomerase 2α)?
Answer: inhibited Top 2α-mediated DNA relaxation
